Reference: patent publication US7223865B2, “Chromogenic compounds, and use thereof as enzyme substrates” (Biomerieux, priority 2003, dated 2007)

How the values were obtained:
Assay in all cases: pyroglutamine-aminopeptidase activity on gelled medium, Example 9
Format in all cases: cell-based
Design in all cases: key to growth: ++ means good growth; + means moderate growth; +/− means poor growth; NG means no growth
[1] = test system: Escherichia coli (NCTC 14018)
Method: (§1) A gelled medium comprising this substrate is prepared as follows: 30 mg of each substrate are dissolved (heating) in 10 ml of sterile distilled water. Ten ml of this solution are then added to 90 ml of Columbia agar kept molten at 50° C.
(§2) Various strains of microorganisms derived from the NCTC collection (National Collection of Type Cultures, Colindale, UK) were seeded onto the media thus obtained according to the multipoint inoculation described in example 8 above.
(§3) The colonies formed were examined visually after incubation for 24 h and 48 h. The color and the growth of these colonies were noted.

[2] = test system: Serratia marcescens (NCTC 10211)
Method: as §1, §2, §3

[3] = test system: Klebsiella pneumonia (NCTC 10896)
Method: as §1, §2, §3

[4] = test system: Shigella sonnei (NCTC 9774)
Method: as §1, §2, §3

[5] = test system: Enterobacter cloacae (NCTC 11936)
Method: as §1, §2, §3

[6] = test system: Salmonella poona (NCTC 4840)
Method: as §1, §2, §3

[7] = test system: Pseudomonas aeruginosa (NCTC 10662)
Method: as §1, §2, §3

[8] = test system: Escherichia coli 0157 (NCTC 12079)
Method: as §1, §2, §3

[9] = test system: Burkholderia cepacia (NCTC 10743)
Method: as §1, §2, §3

[10] = test system: Salmonella typhimurium (NCTC 74)
Method: as §1, §2, §3

Question: For `C[n+]1c2ccccc2c(-c2ccc(NC(=O)C3CCC(=O)N3)cc2)c2ccccc21.[Cl-]` (stereo not shown) [PG-4-AP-10-MA, pyroglutamyl-9-(4-aminophenyl)-10-methyl-acridine], which color of colonies ([1]; 24 h) is on record?
Answer: Colorless

Question: What about the growth ([1]; 24 h) of the same compound?
Answer: ++

Question: What about the color of colonies ([1]; 48 h) of the same compound?
Answer: Colorless

Question: And the growth ([1]; 48 h)?
Answer: ++

Question: And the color of colonies ([2]; 24 h)?
Answer: Colorless

Question: And the growth ([2]; 24 h)?
Answer: ++

Question: What about the color of colonies ([2]; 48 h) of the same compound?
Answer: Pale orange

Question: And the growth ([2]; 48 h)?
Answer: ++

Question: What about the color of colonies ([3]; 24 h) of the same compound?
Answer: Colorless

Question: And the growth ([3]; 24 h)?
Answer: ++

Question: And the color of colonies ([3]; 48 h)?
Answer: Pale orange

Question: And the growth ([3]; 48 h)?
Answer: ++

Question: What about the color of colonies ([4]; 24 h) of the same compound?
Answer: Colorless

Question: What about the growth ([4]; 24 h) of the same compound?
Answer: ++

Question: And the color of colonies ([4]; 48 h)?
Answer: Colorless

Question: What about the growth ([4]; 48 h) of the same compound?
Answer: ++

Question: What about the color of colonies ([5]; 24 h) of the same compound?
Answer: Colorless

Question: What about the growth ([5]; 24 h) of the same compound?
Answer: ++

Question: What about the color of colonies ([5]; 48 h) of the same compound?
Answer: Pale orange

Question: And the growth ([5]; 48 h)?
Answer: ++

Question: And the color of colonies ([6]; 24 h)?
Answer: Colorless

Question: And the growth ([6]; 24 h)?
Answer: ++

Question: What about the color of colonies ([6]; 48 h) of the same compound?
Answer: Colorless

Question: What about the growth ([6]; 48 h) of the same compound?
Answer: ++

Question: What about the color of colonies ([7]; 24 h) of the same compound?
Answer: Colorless

Question: And the growth ([7]; 24 h)?
Answer: ++

Question: And the color of colonies ([7]; 48 h)?
Answer: Orange

Question: And the growth ([7]; 48 h)?
Answer: ++

Question: What about the color of colonies ([8]; 24 h) of the same compound?
Answer: Colorless

Question: What about the growth ([8]; 24 h) of the same compound?
Answer: ++

Question: And the color of colonies ([8]; 48 h)?
Answer: Colorless

Question: What about the growth ([8]; 48 h) of the same compound?
Answer: ++

Question: And the color of colonies ([9]; 24 h)?
Answer: Colorless

Question: And the growth ([9]; 24 h)?
Answer: ++

Question: What about the color of colonies ([9]; 48 h) of the same compound?
Answer: Pale orange

Question: And the growth ([9]; 48 h)?
Answer: ++

Question: And the color of colonies ([10]; 24 h)?
Answer: Colorless

Question: And the growth ([10]; 24 h)?
Answer: ++

Question: What about the color of colonies ([10]; 48 h) of the same compound?
Answer: Colorless

Question: What about the growth ([10]; 48 h) of the same compound?
Answer: ++
